Assay results reported in patent US11325907B2, “Crystal form of 1H-imidazo[4,5-b]pyridine-2(3H)-one compound and preparation process therefor” (MEDSHINE DISCOVERY INC., priority 2018, dated 2022).

Experiment: Solid stability test under accelerated conditions (40° C./Relative Humidity 75%, sealed)
Format: physicochemical
Description: Content Determination Method
Device: Agilent 1260 High Performance Liquid Chromatograph with DAD detector or Shimadzu LC-20A High Performance Liquid Chromatograph with PDA detector
Detailed Chromatographic parameters are as follows:
Chromatographic column: Agilent Eclipse plus C18 (4.6 mm×150 mm, 3.5 μm)
Column temperature: 40° C.
Detecting wavelength: 230 nm
Mobile Phase A: 0.04% trifluoroacetic acid aqueous solution (V/V)
Mobile Phase B: acetonitrile
Diluent: acetonitrile: purified water=3:1 (v/v)
Probe Wash: acetonitrile: purified water=3:1 (v/v)
Gradient elution procedure: […]
Each layer of the low-density polyethylene bag was buckled and sealed respectively and then the bag was placed in an aluminum foil bag and heat-sealed. The samples were taken on the 1st, 2nd, 3rd and 6th months for testing, and the test results were compared with the initial test results of day 0.

[1] = Batch 1, 40° C./Relative Humidity 75%, Sealed, 1st month
[2] = Batch 1, 40° C./Relative Humidity 75%, Sealed, 2nd month
[3] = Batch 1, 40° C./Relative Humidity 75%, Sealed, 3rd month
[4] = Batch 1, 40° C./Relative Humidity 75%, Sealed, 6th month
[5] = Batch 2, 40° C./Relative Humidity 75%, Sealed, 1st month
[6] = Batch 2, 40° C./Relative Humidity 75%, Sealed, 2nd month
[7] = Batch 2, 40° C./Relative Humidity 75%, Sealed, 3rd month
[8] = Batch 2, 40° C./Relative Humidity 75%, Sealed, 6th month
[9] = Batch 3, 40° C./Relative Humidity 75%, Sealed, 1st month
[10] = Batch 3, 40° C./Relative Humidity 75%, Sealed, 2nd month
[11] = Batch 3, 40° C./Relative Humidity 75%, Sealed, 3rd month
[12] = Batch 3, 40° C./Relative Humidity 75%, Sealed, 6th month

## CCOc1cc([C@@H](CS(C)(=O)=O)n2c(=O)[nH]c3c(C)c(-c4ccccc4F)cnc32)ccc1OC [Crystal Form A of Compound 1]
[1]
  Appearance: White powder
  Content: 99.3%
  Total Impurity: 0.09%
[2]
  Appearance: White powder
  Content: 99.1%
  Total Impurity: 0.09%
[3]
  Appearance: White powder
  Content: 99.5%
  Total Impurity: 0.09%
[4]
  Content: 100.1%
  Total Impurity: 0.10%
Batch 1, Day 0
  Appearance: White powder
  Content: 99.4%
  Crystal Form (XRPD): Crystal Form A
  Total Impurity: 0.09%
[5]
  Appearance: White powder
  Content: 99.1%
  Total Impurity: 0.11%
[6]
  Appearance: White powder
  Content: 99.0%
  Total Impurity: 0.11%
[7]
  Appearance: White powder
  Content: 99.2%
  Total Impurity: 0.10%
[8]
  Appearance: White powder
  Content: 100.5%
  Crystal Form (XRPD): Crystal Form A
  Total Impurity: 0.12%
Batch 2, Day 0
  Appearance: White powder
  Content: 99.4%
  Crystal Form (XRPD): Crystal Form A
  Total Impurity: 0.10%
[9]
  Appearance: White powder
  Content: 98.8%
  Total Impurity: 0.16%
[10]
  Appearance: White powder
  Content: 98.9%
  Total Impurity: 0.16%
[11]
  Appearance: White powder
  Content: 99.2%
  Total Impurity: 0.16%
[12]
  Content: 100.0%
  Total Impurity: 0.11%
Batch 3, Day 0
  Appearance: White powder
  Content: 99.5%
  Crystal Form (XRPD): Crystal Form A
  Total Impurity: 0.11%
Accelerated conditions of 40° C./Relative Humidity 75%
  Solid stability (conclusion): good stability
